Laboratory results reported in patent US8664226B2, “Compound having 3-heteroarylpyrimidin-4-(3H)-one structure and pharmaceutical preparation containing same” (Kowa Company, Ltd., priority 2009, dated 2014).

Experiments:
human PPARγ2 = target: T1, human PPARγ2 (Homo sapiens, UniProt P37231); assay: PPARγ activation activity, Gal4 chimera luciferase transfection assay using COS7 cells; type: cell-based; settings: COS7 cells; for EC50: Gal4-human PPARγ2 LBD chimera, luciferase reporter, 16 hours, read-out: EC50; for Emax: COS-7, 16 h, maximum activity strength relative to the maximum activity of rosiglitazone, read-out: % MAX vs Rosiglitazone
T1 construct: the amino acids 182 to 505 of human PPARγ2; expressed in transfected cells; host or cells: COS7 cells
Experimental: The agonistic activity of the compounds of the invention on PPARγ was measured based on the transfection assay using COS7 cells (DS Pharma Biomedical Co., Ltd., Osaka, Japan), which are the cell line derived from the kidney of the African green monkey. COS7 cells were cultured under 5% CO2 concentration, and DMEM medium containing 10% fetal bovine serum, glutamic acid, and antibiotics was used as a medium.
As an expression vector, a chimera in which DNA binding domain of Gal4, which is a yeast transcription factor, and ligand binding domain of human PPAR^γ2 are fused, i.e., a fused product between the amino acids 1 to 147 of Gal4 transcription factor and the amino acids 182 to 505 of human PPARγ2, was used. Furthermore, as a reporter vector, a firefly luciferase containing five copies of Gal4 recognition sequence in the promoter region was used. Plasmid transfection to the cells was performed according to a method which uses jetPEI (trade name, manufactured by Funakoshi Co., Ltd., Tokyo, Japan). Furthermore, β-galactosidase expression vector was employed as an internal standard.
After the transfection of the cells, the medium was replaced with a DMEM medium (containing 1% serum) added with the compound, and the cells were further cultured for 16 hours. After that, the luciferase activity and β-galactosidase activity in the cell lysis solution were measured.
For the present test, dimethyl sulfoxide (DMSO) was used for dissolution and dilution of the test compounds, and during the cell treatment, the DMSO concentration in DMEM medium (containing 1% serum) was adjusted to 0.1%. As a positive compound, rosiglitazone (trade name, manufactured by ALEXIS Corporation, Switzerland) was used. […] The 50% effective concentration of the test compound (EC50, 50% effect concentration) was calculated by using SAS Preclinical Package Ver5.0 (trade name, manufactured by SAS institute Japan Co., Tokyo, Japan), which is a statistical analysis program.

[1] = target: T2, angiotensin II type 1 receptor (Oryctolagus cuniculus, UniProt P34976); assay: Angiotensin II antagonistic activity in isolated rabbit blood vessels; settings: angiotensin II (10 nM)-induced contraction of rabbit thoracic aorta ring
T2 construct: By using a specimen of isolated rabbit blood vessels; from tissue; host or cells: rabbit thoracic aorta ring (New Zealand White, male)
T2 sequence (P34976 1-359): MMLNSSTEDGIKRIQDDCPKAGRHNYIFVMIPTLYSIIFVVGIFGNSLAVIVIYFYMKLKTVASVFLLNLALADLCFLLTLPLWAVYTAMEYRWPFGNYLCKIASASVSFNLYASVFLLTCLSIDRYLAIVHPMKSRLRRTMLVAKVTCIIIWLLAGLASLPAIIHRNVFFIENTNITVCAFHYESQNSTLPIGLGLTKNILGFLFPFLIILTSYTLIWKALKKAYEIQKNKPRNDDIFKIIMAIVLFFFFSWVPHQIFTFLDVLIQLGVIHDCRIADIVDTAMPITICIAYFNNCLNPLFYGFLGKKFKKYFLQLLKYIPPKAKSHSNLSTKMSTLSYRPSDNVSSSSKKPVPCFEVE
Summary of the method: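 Contraction of isolated rabbit vessel induced by angiotensin II, in a magnus bath at 37° C gassed with 95% O2/5% CO2. Responses expressed as % of the 10 nM angiotensin II contraction without compound, and IC50 calculated from the concentration-response curve.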

T1 sequence (P37231 182-505): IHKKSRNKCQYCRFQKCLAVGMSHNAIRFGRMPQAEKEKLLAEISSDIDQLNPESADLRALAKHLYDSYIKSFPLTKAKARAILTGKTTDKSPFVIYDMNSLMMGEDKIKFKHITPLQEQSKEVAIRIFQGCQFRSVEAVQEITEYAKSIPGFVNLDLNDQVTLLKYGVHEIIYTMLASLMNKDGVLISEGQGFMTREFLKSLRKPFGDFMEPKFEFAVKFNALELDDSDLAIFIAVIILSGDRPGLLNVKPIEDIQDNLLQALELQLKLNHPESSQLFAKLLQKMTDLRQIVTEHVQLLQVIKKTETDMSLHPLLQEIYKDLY
T1 sequence (P04386 1-147 partner limits assumed): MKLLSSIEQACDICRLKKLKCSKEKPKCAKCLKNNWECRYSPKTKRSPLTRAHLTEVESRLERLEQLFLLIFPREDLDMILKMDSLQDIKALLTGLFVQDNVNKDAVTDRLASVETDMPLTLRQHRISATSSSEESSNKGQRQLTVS

Row | SMILES | EC50 (human PPARγ2) [nM] | IC50 [1] [nM] | Emax (human PPARγ2) [%]
1 | CCCCc1nc(C)n(-c2ccnn2C)c(=O)c1Cc1ccc(-c2ccccc2-c2nnn[nH]2)cc1 [Example 64, 5-{[2′-(1H-tetrazol-5-yl)biphenyl-4-yl]methyl}-6-butyl-2-methyl-3-(1-methyl-1H-pyrazol-5-yl)pyrimidin-4 (3H)-one] | 3300 | 652 | 
2 | CCCCc1nc(C)n(-c2cc(C(F)(F)F)ccn2)c(=O)c1Cc1ccc(-c2ccccc2-c2nnn[nH]2)cc1 [Example 10, 5-{[2′-(1H-tetrazol-5-yl)biphenyl-4-yl]methyl}-6-butyl-2-methyl-3-[4-(trifluoromethyl)pyridin-2-yl]pyrimidin-4(3H)-one] | 3890 | 181 | 
3 | CCCCc1nc(C)n(-c2ncc(OCC)cn2)c(=O)c1Cc1ccc(-c2ccccc2-c2nnn[nH]2)cc1 [Example 21, 5-{[2′-(1H-tetrazol-5-yl)biphenyl-4-yl]methyl}-6-butyl-3-(5-ethoxypyrimidin-2-yl)-2-methylpyrimidin-4 (3H)-one] | 1590 | 17 | 
4 | CCCCc1nc(C)n(-c2nccs2)c(=O)c1Cc1ccc(-c2ccccc2-c2nnn[nH]2)cc1 [Example 62, 5-{[2′-(1H-tetrazol-5-yl)biphenyl-4-yl]methyl}-6-butyl-2-methyl-3-(thiazol-2-yl)pyrimidin-4 (3H)-one] | 3390 | 435 | 
5 | CCCCc1nc(C)n(-c2cc(OC)nc(OC)n2)c(=O)c1Cc1ccc(-c2ccccc2-c2nnn[nH]2)cc1 [Example 59] | 1240 | 13 | 
6 | CCCCc1nc(C)n(-c2ccc(C)cn2)c(=O)c1Cc1ccc(-c2ccccc2-c2nnn[nH]2)cc1 [Example 2, 5-{[2′-(1H-tetrazol-5-yl)biphenyl-4-yl]methyl}-6-butyl-2-methyl-3-(5-methylpyridin-2-yl)pyrimidin-4(3H)-one] | 4150 | 84 | 24.1
7 | CCCCc1nc(C)n(-c2ncc(OC3CCCCC3)cn2)c(=O)c1Cc1ccc(-c2ccccc2-c2nnn[nH]2)cc1 [Example 28, 5-{[2′-(1H-tetrazol-5-yl)biphenyl-4-yl]methyl}-6-butyl-3-[5-(cyclohexyloxy)pyrimidin-2-yl]-2-methylpyrimidin-4 (3H)-one] | 1230 | 49 | 28.9
8 | CCCCc1nc(C)n(-c2ccon2)c(=O)c1Cc1ccc(-c2ccccc2-c2nnn[nH]2)cc1 [Example 63, 5-{[2′-(1H-tetrazol-5-yl)biphenyl-4-yl]methyl}-6-butyl-3-(isoxazol-3-yl)-2-methylpyrimidin-4 (3H)-one] | 3670 | 193 | 
9 | CCCCc1nc(C)n(-c2ncc(OCCC)cn2)c(=O)c1Cc1ccc(-c2ccccc2-c2nnn[nH]2)cc1 [Example 22, 5-{[2′-(1H-tetrazol-5-yl)biphenyl-4-yl]methyl}-6-butyl-2-methyl-3-(5-propoxypyrimidin-2-yl)pyrimidin-4 (3H)-one] | 590 | 155 | 22.8
10 | CCCCc1nc(C)n(-c2ncccc2Cl)c(=O)c1Cc1ccc(-c2ccccc2-c2nnn[nH]2)cc1 [Example 6, 5-{[2′-(1H-tetrazol-5-yl)biphenyl-4-yl]methyl}-6-butyl-3-(3-chloropyridin-2-yl)-2-methylpyrimidin-4(3H)-one] | 1690 | 24 | 20.3
11 | CCCCc1nc(C)n(-c2cccc(Br)n2)c(=O)c1Cc1ccc(-c2ccccc2-c2nnn[nH]2)cc1 [Example 8, 5-{[2′-(1H-tetrazol-5-yl)biphenyl-4-yl]methyl}-3-(6-bromopyridin-2-yl)-6-butyl-2-methylpyrimidin-4(3H)-one] | 880 | 395 | 27.7
12 | CCCCc1nc(C)n(-c2ncccc2F)c(=O)c1Cc1ccc(-c2ccccc2-c2nnn[nH]2)cc1 [Example 4, 5-{[2′-(1H-tetrazol-5-yl)biphenyl-4-yl]methyl}-6-butyl-3-(3-fluoropyridin-2-yl)-2-methylpyrimidin-4(3H)-one] | 1440 | 60 | 
